Target: T1, rat I7 olfactory receptor (OR-I7) (Rattus norvegicus, UniProt P23270)
T1 sequence (P23270 1-327): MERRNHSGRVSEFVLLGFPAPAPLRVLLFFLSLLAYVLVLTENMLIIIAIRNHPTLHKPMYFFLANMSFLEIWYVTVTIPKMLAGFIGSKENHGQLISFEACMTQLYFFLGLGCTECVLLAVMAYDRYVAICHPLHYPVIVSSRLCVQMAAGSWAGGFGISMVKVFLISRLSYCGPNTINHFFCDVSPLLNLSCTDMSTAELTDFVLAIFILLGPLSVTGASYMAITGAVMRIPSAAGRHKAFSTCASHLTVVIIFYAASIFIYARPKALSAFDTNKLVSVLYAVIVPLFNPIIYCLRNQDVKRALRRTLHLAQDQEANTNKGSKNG
Format: cell-based

EC50 [µM]	SMILES
446 ± 16	CCCCCCCCCCC=O [undecanal]
16 ± 1.7	CCCCCCCCCC=O [decanal]
4.4 ± 0.4	CCCCCCCCC=O [nonanal]
